# Reference: patent US20040049009A1, “Methods for improving the antagonistic/agonistic properties of peptidic antagonists/agonists of the corticotropin-releasing factor receptor (crfr)” (priority 2000, published 2004)
# Assays:
# rCRFR1 [1] = molecular target: T1, rCRFR1 (Rattus norvegicus, UniProt P35353); test: Competitive binding to rCRFR1, SPA on HEK-293 membrane fractions with [125I-Tyr0]h/rCRF; conditions: binding affinities CRFR1 vs CRFR2
# T1 sequence (P35353 24-415): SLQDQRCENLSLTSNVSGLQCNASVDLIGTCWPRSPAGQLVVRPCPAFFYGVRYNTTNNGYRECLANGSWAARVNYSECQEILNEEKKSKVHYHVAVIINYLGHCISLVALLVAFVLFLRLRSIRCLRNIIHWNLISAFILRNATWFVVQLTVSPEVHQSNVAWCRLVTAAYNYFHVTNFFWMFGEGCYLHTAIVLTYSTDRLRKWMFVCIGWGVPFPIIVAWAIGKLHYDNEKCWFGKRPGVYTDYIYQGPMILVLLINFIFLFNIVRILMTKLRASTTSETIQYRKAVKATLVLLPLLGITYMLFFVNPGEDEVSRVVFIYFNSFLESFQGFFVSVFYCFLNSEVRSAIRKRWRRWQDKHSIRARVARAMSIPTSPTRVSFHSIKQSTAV
# Experimental: (§1) The SPA assay for rCRFR1 and rCRFR2β was performed in 96-well microtiter plates. […] After 1 hour shaking 250 mg wheat germ agglutinin beads per well were added and the plates were counted in a microbeta scintillation counter (Wallac). cAMP accumulation was measured using the SPA based Biotrack assay (Amersham).
# Binding of CRF-like peptides to rCRFBP was carried out with an SPA assay in nickel-chelate-coated 96-well microtiter plates (Flash Plate PLUS™, NEN), which bound rCRFBP tagged with a C-terminal His6 sequence (rCRFBP-His6). The scintillator beads carrying the Ni 2+ ions for binding of the His tag were located at the inner surface of the wells of this microtiterplate. […] The plates were sealed and incubated for four hours at room temperature. The radioactivities in the microtiterplates were counted in a Wallac 1450 Microbeta scintillation counter by detection of the light emitted from the scintillator beads. In both SPA systems the detection of the radioligand.8 depended on its proximity to the beads containing the scintillator. […] The major portion of counted radioactivity (>70%) represented specific binding that was because of radiolabeled ligand specifically bound to CRFBP or CRFR. […] Binding data were analyzed using the Prism computer program (GraphPad Software, San Diego).
# C57BL/6J mice = test: Elevated plus-maze test, icv injection, oCRF-induced behavior; type: in vivo, mouse
# Experimental: The antagonists and agonists were injected icv 30 and 15 min, respectively, before exposure to the elevated plus-maze for 5 min.
# Ten min later the animals received 90 ng oCRF, and after 30 min, their behavior was recorded in the elevated plus maze test.
# Alternatively, the elevated plus-maze behavior of C57BL/6J mice cannulated in the lateral ventricles (Radulovic, J., Rühmann, A., Liepold, T & Spiess, J. (1999) J.Neurosci. 19, 5016-5025) was investigated 15 min after injection of ovine CRF (oCRF) in the elevated plus-maze test (Radulovic, J., Kammermeier, J. & Spiess, J. (1998) Behav.Brain Res. 95, 179-189.).Peptide concentrations were determined by amino acid analysis (Radulovic, J., Rühmann, A., Liepold, T. & Spiess, J. (1999) J.Neurosci. 19, 5016-5025). CRF antagonists in aCSF as vehicle or vehicle alone were injected 30 min prior to oCRF administration. The behavior of the mice was recorded by a video camera connected to a PC and analyzed by the software VideoMot 2 (Technical &Scientific Equipment). The time spent, distance crossed, and number of entries in the open arms, closed arms, and center were recorded. The cannular placement was confirmed for each mouse by histological examination of the brains after methylene blue injection (Radulovic, J., Rühmann, A., Liepold, T. & Spiess, J. (1999) J.Neurosci. 19, 5016-5025). The behavioral data were analyzed by t tests or ANOVA followed by post hoc Scheffe's test for multiple comparisons. Data are presented as mean±SEM. The shift of preference from the open to the closed arms is interpreted as an increase of anxiety-like behavior. Locomotor activity is determined with this assay by the distance traveled.
# mCRFR2β = molecular target: T2, mCRFR2β (Mus musculus, UniProt Q60748); test: Intracellular cAMP accumulation in mCRFR2β-HEK 293 cells; type: cell-based; conditions: for Rel. intrinsic activity mCRFR2β: cAMP after 1 μM antagonist relative to Svg stimulation, 95% CI in parentheses; for Rel. potency of antagonist mCRFR2β: inhibition of cAMP accumulation after 1 nM Svg
# T2 construct: expressed in transfected cells
# T2 sequence (Q60748 1-431 isoform Q60748-2): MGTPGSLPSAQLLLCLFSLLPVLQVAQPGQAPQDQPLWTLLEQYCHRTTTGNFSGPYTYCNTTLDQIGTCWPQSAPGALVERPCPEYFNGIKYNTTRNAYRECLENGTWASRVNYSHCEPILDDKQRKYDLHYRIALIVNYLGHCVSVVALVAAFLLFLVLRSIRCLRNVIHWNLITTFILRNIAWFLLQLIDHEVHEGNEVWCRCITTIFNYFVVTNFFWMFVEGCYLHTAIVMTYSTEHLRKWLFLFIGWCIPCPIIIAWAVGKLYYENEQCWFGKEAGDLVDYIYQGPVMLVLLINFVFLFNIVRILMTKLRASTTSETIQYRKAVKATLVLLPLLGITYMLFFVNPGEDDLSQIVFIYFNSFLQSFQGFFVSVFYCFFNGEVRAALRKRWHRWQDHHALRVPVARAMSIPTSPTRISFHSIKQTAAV
# Experimental: as §1
# rCRFR1 [2] = molecular target: T1, rCRFR1
# [3] = Isoelectric focusing (IEF); type: physicochemical; conditions: determined by isoelectric focussing
# Experimental: Isoelectric focusing (IEF) was carried out with a BioRad IEF cell system using Biorad IEF strips (11 cm, pH range from 3 to 10). The system was cooled to 20° C. Calibration was performed with 80 μg of Sigma IEF mix 3.6-9.3 dissolved in 200 μl water containing 0.2% Bio-Lyte® 3/10 and 0.1% NP40. Twenty five μg of each peptide was dissolved in 200 μl water containing 0.2% Bio-Lyte® 3/10,0.1% NP40, and 10 mM DTT.IEF gels were placed in the chamber containing the peptide solution. The IEF gels were initially rehydrated for 12 hours at 50 V. Focusing of the peptides was achieved by application of a linear voltage gradient starting at 250 V and reaching 8000 V in 2.5 hours. The gels were then exposed to 8000 V for 4.5 hours. Subsequently, the IEF gels were stained in the BioRad IEF gel staining solution and destained in a mixture of 10% acetic acid, 40% methanol, and 50% water.
compound,measurement,setting,value
h/rCRF,"selectivity favoring CRFR1 (over CRFR2), factor",rCRFR1 [1],30
oCRF,effect on oCRF-elicited anxious behavior in elevated plus maze (Example 9),"C57BL/6J mice; 220 ng [E11]Ast icv, 10 min later 90 ng oCRF, threefold molar excess",elicited anxious behavior
same,"anxiety-like behavior (open arm visits, % time in open arms)",C57BL/6J mice; icv 20 pmol (90 ng) oCRF,enhanced
same,locomotion (total distance crossed) in elevated plus-maze,C57BL/6J mice; icv 20 pmol (90 ng) oCRF,markedly decreased
same,behavior effects at higher agonist dose,C57BL/6J mice; icv 35 pmol (170 ng) oCRF,significantly enhanced
α-helical CRF^9-41 [α-hel-CRF^9-41],Rel. intrinsic activity mCRFR2β,mCRFR2β,1.4 (1.2-1.5) %
same,Rel. potency of antagonist mCRFR2β,mCRFR2β,97 (96-97) %
same,Emax,rCRFR1 [2],19%
same,change of oCRF-induced behavioral effects in plus-maze test,C57BL/6J mice; 120 pmol antagonist icv before 35 pmol oCRF,no significant change
anti-sauvagine-30 [aSvg-30],Rel. intrinsic activity mCRFR2β,mCRFR2β,1.0 (0.9-1.1) %
same,Rel. potency of antagonist mCRFR2β,mCRFR2β,99 (98-99) %
same,Emax,rCRFR1 [2],6.5%
"CC[C@H](C)[C@H](NC(=O)[C@@H](NC(=O)[C@H](CC(=O)O)NC(=O)[C@H](CC(C)C)NC(=O)[C@H](CC(C)C)NC(=O)[C@H](CC(C)C)NC(=O)[C@H](CCCNC(=N)N)NC(=O)[C@H](CC(N)=O)NC(=O)[C@H](CC(N)=O)NC(=O)[C@H](C)NC(=O)[C@H](C)NC(=O)[C@H](CCC(N)=O)NC(=O)[C@H](CCC(N)=O)NC(=O)[C@H](CCCCN)NC(=O)[C@H](CCC(=O)O)NC(=O)[C@H](CCCCN)NC(=O)[C@H](CCC(=O)O)NC(=O)[C@H](CCC(N)=O)NC(=O)[C@H](CCCCN)NC(=O)[C@H](CCC(=O)O)NC(=O)[C@@H](NC(=O)[C@H](CCC(=O)O)NC(=O)[C@@H](NC(=O)[C@H](CCSC)NC(=O)[C@H](CCCCN)NC(=O)[C@H](CCCNC(=N)N)NC(=O)[C@H](CC(C)C)NC(=O)[C@H](CC(C)C)NC(=O)[C@H](CCC(=O)O)NC(=O)[C@H](CC(C)C)NC(=O)[C@H](CO)NC(=O)[C@H](CC(C)C)NC(=O)[C@H](CC(=O)O)NC(=O)[C@@H](NC(=O)[C@H](CO)NC(=O)[C@@H](NC(=O)[C@@H]1CCCN1C(=O)[C@@H]1CCCN1C(=O)CNC(=O)[C@@H]1CCC(=O)N1)[C@@H](C)CC)[C@@H](C)CC)[C@@H](C)CC)[C@@H](C)CC)[C@@H](C)O)C(N)=O [Svg, sauvagine]",Isoelectric point,[3],5.1
